# Results reported in patent US20230228744A1, “DRY EYE DISEASE BIOMARKERS AND THEIR USE FOR TREATMENT” (Aldeyra Therapeutics, Inc., priority 2020, published 2023).
# “Also recorded” adds a separate entry of the source.
# Tested on: malondialdehyde (MDA) adducts in tears
# Experiment: Phase 2a clinical study, MDA adduct competitive ELISA in tears
# Type: in vivo, human
# Details: 28 days (4 weeks) of treatment, pooled reproxalap groups
# Description: The study was to assess levels of malondialdehyde (MDA) adducts in tears collected from subjects with dry eye disease enrolled in a Phase 2a, randomized, double-masked, clinical study to assess the safety, tolerability, and pharmacodynamic activity of ADX-102 ophthalmic solution in subjects with dry eye diseases, also referred to herein as dry eye syndrome (DES).
# Tears were collected during Visit 1, prior to treatment, and during Visit 3, following four weeks of treatment. Treatment groups consisted of ADX-102 Ophthalmic Solution (0.5%), ADX-102 Ophthalmic Solution (0.1%), and ADX-102 Ophthalmic Lipid Solution (0.5%). […]
# The assay is a competitive ELISA. […] The plate is read in a microplate reader at 450 nm. The assay OD reading decreases with increasing MDA adducts in the samples, as the adsorbed MDA competes for binding to the MDA antibody with MDA adducts in the test sample. […]
# DES Study Samples. Based on the results of the pilot assay, a 1:60 dilution was determined to maximize the likelihood of the OD values falling within the linear portion of the standard curve, and thus provide the most accurate results. All tear samples from subjects (0.5% ADX-102 Ophthalmic Solution) and (0.1% ADX-102 Ophthalmic Solution) were analyzed, but results from some tear samples were excluded from the data analysis due to contamination with ocular staining dye in the Visit 3 samples. […]
smiles,measurement,value
"CC(C)(O)c1nc2ccc(Cl)cc2cc1N [reproxalap, Reproxalap]",tear MDA adduct / RASP levels after treatment relative to baseline (pooled groups),reduction in tear RASP levels; also recorded: statistically lower
